Laboratory results as given in patent US20030161827A1, “Therapies that improve graft survival” (priority 2000, published 2003).

Tested on: renal allograft
Test: Unilateral renal transplantation, mAb and sirolimus (Example 2)
Format: in vivo, monkey
Conditions: n=4 per group; treatment until day 56, followed until day 119
Method: Unilateral renal transplantation was performed in 12 blood group matched and MLR mismatched animals. […] Sirolimus was administered by daily gavage at 1 mg/kg at day 0 to day 13 and then 0.5 mg/kg from day 13 to day 56. All animals were off immunosuppression after day 56 and were then followed until day 119.

Work on `CO[C@H]1C[C@@H]2CC[C@@H](C)[C@@](O)(O2)C(=O)C(=O)N2CCCC[C@H]2C(=O)O[C@H]([C@H](C)C[C@@H]2CC[C@@H](O)[C@H](OC)C2)CC(=O)[C@H](C)/C=C(\C)[C@@H](O)[C@@H](OC)C(=O)[C@H](C)C[C@H](C)/C=C/C=C/C=C/1C` [sirolimus] yielded a mean survival of 23 days.
